Format in all cases: cell-based
The subject of data set [1] is Candida utilis ATCC 42416. Briefly: Antimicrobial activity (MIC) over storage time at 37° C. The following applies: stored at 37° C., 30 days, heated extract: 121° C. for 120 min. On the procedure: (§1) In order to compare the antibacterial activity and the antifungal activity of the garlic extract of Example 1 prepared by heating at 121° C., according to the heating time, MIC (minimum inhibitory concentration) was measured for the samples of the heated garlic extract. The MIC represents minimum concentration of material to inhibit the growth of certain type of microorganism. It is understood that the lower the MIC of a material, the higher the antimicrobial activity of the material. The inhibition of microbial growth was measured by viable count method based on Spiral Autoplate System of Spiral Biotech Inc. Three separate experiments were carried out for each sample and the highest value was taken as the MIC of the sample.
Antimicrobial activity of the garlic extract prepared by heating at 121° C. for 120 min in Example 1, the fresh garlic extract and the AITC solution was measured for Candida utilis ATCC 42416, over storage time. Candida utilis ATCC 42416 used in this Test Example was kindly provided from Dr. Henry P. Fleming at the Food Fermentation Laboratory of the North Carolina State University in USA. […] From the first day to the 30th day of the storage, the MIC was measured everyday or every two days using the viable count method described in Test Example 1.

Data set [2] relates to Escherichia coli B34. Briefly: MIC, viable count method. The following applies: 24 hrs, heated garlic: 121° C. for 45 min. Here is the method:
as §1
(§2) Antimicrobial activity was measured for the garlic extract heated at 121° C. for 45 min of Example 1, the fresh garlic extract and the AITC solution which had been prepared in Comparative Examples. Conditions for the viable count method, the medium and initial number of microorganisms inoculated were the same as those described in the above Test Examples. The MIC was measured at 24 hrs or 48 hrs after incubating the bacteria or the yeasts, respectively.
(§3) Staphylococcus aureus B33, Escherichia coli B34, Enterobacter aerogenes B146, Leuconostoc mesenteroides LA10, Pediococcus pentosaceus LA3, Lactobacillus plantarum LA97, Pichia membranifaciens Y20, Saccharomyces cerevisiae ATCC 4126 and Candida utilis ATCC 42416 used in this Test Example were kindly provided from Dr. Henry P. Fleming at the Food Fermentation Laboratory of the North Carolina State University in USA. Candida albicans HY1 was separated from an infant with oral candidiasis. In addition, Candida albicans KCTC 7121 and 7965 were purchased from Korean Collection for Type Cultures (KCTC) and Zygosaccharomyces bisporus KCCM 50168, Zygosaccharomyces rouxii (soya) KCCM 11300, Zygosaccharomyces rouxii KCCM 11303, Zygosaccharomyces rouxii (sake) KCCM 50523 and Zygosaccharomyces rouxii (gracilis) KCCM 50546 were obtained from KCCM (Korean Culture Center of Microorganisms).

The test system of data set [3] is Zygosaccharomyces bisporus KCCM 50168. The data set is described as follows: MIC, viable count method. Particulars: 48 hrs, heated garlic: 121° C. for 45 min. On the procedure:
as §1, §2, §3

In data set [4] the test system is Pediococcus pentosaceus LA3. Briefly: MIC, viable count method. The following applies: 24 hrs, heated garlic: 121° C. for 45 min. On the procedure:
as §1, §2, §3

Data set [5] relates to Zygosaccharomyces rouxii KCCM 50523. Briefly: MIC, viable count method. Particulars: 48 hrs, heated garlic: 121° C. for 45 min. Here is the method:
as §1, §2, §3

The subject of data set [6] is Pichia membranefaciens Y20. The data set is described as follows: MIC, viable count method. Particulars: 48 hrs, heated garlic: 121° C. for 45 min. Here is the method: as §1, §2, §3
The subject of data set [7] is Zygosaccharomyces rouxii KCCM 11300. Briefly: MIC, viable count method. The following applies: 48 hrs, heated garlic: 121° C. for 45 min. Here is the method:
as §1, §2, §3

The test system of data set [8] is Saccharomyces cerevisiae ATCC 4126. Briefly: MIC, viable count method. The following applies: 48 hrs, heated garlic: 121° C. for 45 min. On the procedure:
as §1, §2, §3

Data set [9] has as its system Staphylococcus aureus B33. The data set is described as follows: MIC, viable count method. Particulars: 24 hrs, heated garlic: 121° C. for 45 min. Here is the method:
as §1, §2, §3

Data set [10] deals with Zygosaccharomyces rouxii KCCM 50546. The data set is described as follows: MIC, viable count method. Particulars: 48 hrs, heated garlic: 121° C. for 45 min. Here is the method:
as §1, §2, §3

In data set [11] the test system is Candida albicans KCTC 7121. Briefly: MIC, viable count method. Particulars: 48 hrs, heated garlic: 121° C. for 45 min. Here is the method: as §1, §2, §3
The subject of data set [12] is Candida albicans (Clinical). Briefly: MIC, viable count method. Particulars: 48 hrs, heated garlic: 121° C. for 45 min. On the procedure: as §1, §2, §3
In data set [13] the test system is Enterobacter aerogenes B146. The data set is described as follows: MIC, viable count method. Particulars: 24 hrs, heated garlic: 121° C. for 45 min. On the procedure: as §1, §2, §3
The test system of data set [14] is Candida albicans KCTC 7965. Briefly: MIC, viable count method. Particulars: 48 hrs, heated garlic: 121° C. for 45 min. Here is the method:
as §1, §2, §3

In data set [15] the test system is Zygosaccharomyces rouxii KCCM 11303. The data set is described as follows: MIC, viable count method. Particulars: 48 hrs, heated garlic: 121° C. for 45 min. Here is the method: as §1, §2, §3
The subject of data set [16] is Lactobacillus plantarum LA97. The data set is described as follows: MIC, viable count method. Particulars: 24 hrs, heated garlic: 121° C. for 45 min. Here is the method: as §1, §2, §3
Data set [17] has as its system Leuconostoc mesenteroides LA10. The data set is described as follows: MIC, viable count method. Particulars: 24 hrs, heated garlic: 121° C. for 45 min. On the procedure: as §1, §2, §3
Data set [18] concerns Candida utilis ATCC 42416. Briefly: MIC, viable count method. The following applies: 48 hrs, heated garlic: 121° C. for 45 min. Here is the method:
as §1, §2, §3

Data set [19] deals with Candida utilis ATCC 42416. Briefly: Antimicrobial activity (log CFU/Ml) over pH condition. Particulars: 30° C., 24 hrs. Here is the method:
Antimicrobial activity of the garlic extract heated at 121° C. for 120 min in Example 1 was measured for Candida utilis ATCC 42416, under various pH conditions. […] For a control, YMPGB medium without comprising any preservative was used. Candida utilis ATCC 42416 used in this Test Example was kindly provided from Dr. Henry P. Fleming at the Food Fermentation Laboratory of the North Carolina State University in USA. […] Then, Candida utilis ATCC 42416 was inoculated with an initial number of 2.1-2.3×10^5 CFU/mL and subsequently incubated at 30° C. for 24 hrs. After completing the incubation, the value of log CFU/Ml was measured by using the viable count method described above.

Consider `C=CCN=C=S` [AITC solution, allyl isothiocyanate], for which the “stability of antifungal activity over storage time” value in data set [1] is “very unstable”. Moreover, the MIC in data set [2] is reported as 0.01 ± 0.0006 volume %; in [3] it was 0.0002 ± 0 volume %; in [4], 0.02 ± 0.0012 volume %; in data set [5], 0.0005 ± 0.0001 volume %; in data set [6], 0.0001 ± 0 volume %; in data set [7], 0.0002 ± 0 volume %. The MIC in data set [8] is listed as 0.0002 ± 0.0001 volume %; in data set [9], 0.015 ± 0.0006 volume %; in data set [10], 0.0004 ± 0.0001 volume %; in [11], 0.0003 ± 0.0001 volume %; in [12], 0.0003 ± 0 volume %; in data set [13], 0.02 ± 0.002 volume %. Besides, the MIC in [14] is reported as 0.0004 ± 0.0001 volume %; in [15], 0.0004 ± 0.0001 volume %; in data set [16], 0.02 ± 0 volume %; in data set [17] it was 0.04 ± 0.0023 volume %; in data set [18], 0.0004 ± 0.0001 volume %.
As for `C/C=C/C=C/C(=O)[O-].[K+]` [potassium sorbate], the “antimicrobial activity, dependence on pH” value in data set [19] (pH 4 to 9, heated garlic extract (121° C., 120 min) 0.5 volume %, potassium sorbate 0.1 weight %) is “significantly affected by pH”. The “antimicrobial activity at pH 5” value in data set [19] (pH 5, 0.1 weight %) is “high”. In addition, the “antimicrobial activity at pH 6” value in data set [19] (pH 6, 0.1 weight %) is “dropped to almost zero”.

Source of the values: patent US20050031715A1, “Natural preservative comprising heated garlic extract and method for preparing thereof” (SEJONG UNIVERSITY, priority 2003, published 2005).
